Key:
recombinant human WRN = target: T1, recombinant human WRN (Homo sapiens, UniProt Q14191); experiment: Inhibition of WRN enzyme activity (ATPase), ADP-Glo Kinase Assay; assay type: biochemical; conditions: WRN protein 5 nM, Flap 0.1 nM, ATP 30 µM; read-out: IC50
T1 construct: purchased BPS 101264
In short: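 ATPase activity was measured by ADP-Glo luminescence after a 10-min room-temperature reaction with 30 µM ATP and 0.1 nM Flap26 oligonucleotide substrate. The 5 nM WRN had first been exposed to compound (0.004–1000 nM) for 15 min in pH 7.5 Tris buffer with 2 mM MgCl2. IC50 values came from log-concentration regression against the DMSO control.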

SW48 cells = experiment: Inhibition of SW48 cell proliferation (CellTiter-Glo); assay type: cell-based; conditions: Homo sapiens; SW48 cells (MSI-H), 120 hours
Description: The following method was used to determine the effect of the compounds of the present disclosure on SW48 cell proliferation. SW48 cells (MSI-H cells) were purchased from American ATCC cell bank and cultured in Leibovitz's L-15 medium (Gibco, catalog No. 11415064) containing 10% fetal bovine serum, 100 U penicillin, and 100 µg/mL streptomycin. Cell viability was determined by CellTiter-Glo® Luminescent Cell Viability Assay kit (Promega, catalog No. G7573).
The experiment was performed according to the steps of the kit manual, which is briefly described as follows: test compounds were first dissolved in DMSO to prepare 10 mM stock solutions, and then diluted with medium to prepare test samples, with final compound concentrations ranging from 10000 nM to 1.52 nM. Cells in logarithmic growth phase were seeded into 96-well cell culture plates at a density of 500 cells per well and cultured overnight at 37 °C in an air incubator, then test compounds were added and cultivation continued for 120 hours. After the cultivation was completed, 40 µL of CellTiter-Glo detection reagent was added to each well, shaken for 5 minutes, and then left to stand for 10 minutes. Luminescence values of each well were read on a microplate reader using Luminescence mode. The percentage inhibition at each concentration point was calculated by comparison with the control group (0.1% DMSO), and then IC50 values for the compounds for inhibition of cell proliferation were obtained using nonlinear regression analysis of compound concentration logarithm versus inhibition rate in GraphPad Prism 9 software, as shown in Table 2.
The IC50 value results of the compounds of the present disclosure are represented by A, wherein "A" indicates 1 nM < IC50 ≤ 100 nM. Table 2 IC50 data for inhibition of SW48 cell proliferation by the compounds of the present disclosure

T1 sequence (Q14191 whole entry): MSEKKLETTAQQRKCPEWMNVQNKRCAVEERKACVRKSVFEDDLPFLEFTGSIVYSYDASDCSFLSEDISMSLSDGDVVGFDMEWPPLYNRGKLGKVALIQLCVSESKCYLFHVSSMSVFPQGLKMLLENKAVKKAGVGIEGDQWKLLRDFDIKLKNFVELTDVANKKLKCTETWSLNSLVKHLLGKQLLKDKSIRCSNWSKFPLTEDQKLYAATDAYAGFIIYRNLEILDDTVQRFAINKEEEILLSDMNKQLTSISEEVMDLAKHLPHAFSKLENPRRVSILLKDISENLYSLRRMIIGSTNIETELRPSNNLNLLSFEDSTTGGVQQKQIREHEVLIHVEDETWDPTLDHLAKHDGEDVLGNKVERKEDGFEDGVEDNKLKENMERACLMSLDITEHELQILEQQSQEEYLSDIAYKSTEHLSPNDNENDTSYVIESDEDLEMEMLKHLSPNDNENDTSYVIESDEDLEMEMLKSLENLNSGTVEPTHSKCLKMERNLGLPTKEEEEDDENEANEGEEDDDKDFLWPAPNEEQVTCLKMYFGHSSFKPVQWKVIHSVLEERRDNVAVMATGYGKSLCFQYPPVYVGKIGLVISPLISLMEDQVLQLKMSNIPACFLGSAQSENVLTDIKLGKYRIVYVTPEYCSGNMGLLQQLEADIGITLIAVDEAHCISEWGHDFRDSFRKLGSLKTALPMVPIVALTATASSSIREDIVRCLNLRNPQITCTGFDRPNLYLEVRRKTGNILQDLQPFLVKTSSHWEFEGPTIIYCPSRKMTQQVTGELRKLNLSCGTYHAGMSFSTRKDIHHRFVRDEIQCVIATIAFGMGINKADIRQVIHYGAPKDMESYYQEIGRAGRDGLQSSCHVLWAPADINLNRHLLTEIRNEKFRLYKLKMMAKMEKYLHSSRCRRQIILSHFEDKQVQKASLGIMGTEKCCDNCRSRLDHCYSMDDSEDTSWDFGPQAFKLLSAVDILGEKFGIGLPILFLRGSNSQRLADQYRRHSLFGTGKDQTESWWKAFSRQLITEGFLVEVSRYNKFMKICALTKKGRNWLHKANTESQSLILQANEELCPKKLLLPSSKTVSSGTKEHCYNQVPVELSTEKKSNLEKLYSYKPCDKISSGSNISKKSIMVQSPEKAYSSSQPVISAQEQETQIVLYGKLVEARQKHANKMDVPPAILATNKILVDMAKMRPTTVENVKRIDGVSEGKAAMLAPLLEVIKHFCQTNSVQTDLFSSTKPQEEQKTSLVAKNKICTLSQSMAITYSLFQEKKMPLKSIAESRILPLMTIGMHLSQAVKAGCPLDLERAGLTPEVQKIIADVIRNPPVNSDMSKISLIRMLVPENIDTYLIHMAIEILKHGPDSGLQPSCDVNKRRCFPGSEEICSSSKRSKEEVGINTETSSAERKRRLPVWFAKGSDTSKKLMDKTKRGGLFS

SMILES | IC50 (recombinant human WRN) | IC50 (SW48 cells)
[2H]c1sc2ccc(-c3nc4n(CC(=O)Nc5ccc(C(F)(F)F)cc5Cl)c(CC)c(N5CCN(C(=O)c6ncnc(C)c6O)CC5)c(=O)n4n3)cc2c1[2H] [Example 170, 2-(2-(benzo[b]thiophen-5-yl-2,3-d2)-5-ethyl-6-(4-(5-hydroxy-6-methylpyrimidine-4-carbonyl)piperazin-1-yl)-7-oxo-[1,2,4]triazolo9[1,5-a]pyrimidin-4(7H)-yl)-N-(2-chloro-4-(trifluoromethyl)phenyl)acetamide] | 1 to 100 nM | 1 to 100 nM
CCc1c(N2CCN(C(=O)c3ncnc(C)c3O)CC2)c(=O)n2nc(C3=CCC4(CC3)CC4)nc2n1CC(=O)Nc1ccc(S(F)(F)(F)(F)F)cc1Cl [Example 174, N-(2-chloro-4-(pentafluoro-λ^6-sulfaneyl)phenyl)-2-(5-ethyl-6-(4-(5-hydroxy-6-methylpyrimidine-4-carbonyl)piperazin-1-yl)-7-oxo-2-(spiro[2.5]oct-5-en-6-yl)-[1,2,4]triazolo[1,5-a]pyrimidin-4(7 H)-yl)acetamide] | 1 to 100 nM | 1 to 100 nM
CCc1c(N2CCN(C(=O)c3ncnc(C)c3O)CC2)c(=O)n2nc(C=C3CCC3)nc2n1CC(=O)Nc1ccc(C(F)(F)F)cc1Cl [Example 33, N-(2-chloro-4-(trifluoromethyl)phenyl)-2-(2-(cyclobutylidenemethyl)-5-ethyl-6-(4-(5-hydroxy-6-methylpyrimidine-4-carbonyl)piperazin-1-yl)-7-oxo-[1,2,4]triazolo[1,5-a]pyrimidin-4(7H)-yl) acetamide] | < 1 nM | 1 to 100 nM
CCc1c(N2CCN(C(=O)c3ncnc(C)c3O)CC2)c(=O)n2nc(-c3ccc4c(c3)CCO4)nc2n1CC(=O)Nc1ccc(S(F)(F)(F)(F)F)cc1Cl [Example 87, N-(2-chloro-4-(pentafluoro-λ^6-sulfaneyl)phenyl)-2-(2-(2,3-dihydrobenzofuran-5-yl)-5-ethyl-6-(4-(5-hydroxy-6-methylpyrimidine-4-carbonyl)piperazin-1-yl)-7-oxo-[1,2,4]triazolo[1,5-a]pyrimidin-4(7H)-yl)acetamide] | 1 to 100 nM | 1 to 100 nM
CCc1c(N2CCN(C(=O)c3ncccc3O)CC2)c(=O)n2nc(C=C3CCC3)nc2n1CC(=O)Nc1ccc(S(F)(F)(F)(F)F)cc1 [Example 52, 2-(2-(cyclobutylidenemethyl)-5-ethyl-6-(4-(3-hydroxypicolinoyl)piperazin-1-yl)-7-oxo-[1,2,4]triazolo[1,5-a]pyrimidin-4(7H)-yl)-N-(4-(pentafluoro-λ^6-sulfaneyl)phenyl)acetamide] | < 1 nM | 1 to 100 nM
[2H]c1cc2cc(-c3nc4n(CC(=O)Nc5ccc(C(F)(F)F)cc5Cl)c(CC)c(N5CCN(C(=O)c6ncnc(C)c6O)CC5)c(=O)n4n3)ccc2s1 [Example 169, 2-(2-(benzo[b]thiophen-5-yl-2-d)-5-ethyl-6-(4-(5-hydroxy-6-methylpyrimidine-4-carbonyl)piperazin-1-yl)-7-oxo-[1,2,4]triazolo[1,5-a]pyrimidin-4(7H)-yl)-N-(2-chloro-4-(trifluoromethyl)phenyl) acetamide] | 1 to 100 nM | 1 to 100 nM
CCc1c(N2CCN(C(=O)c3ncnc(C)c3O)CC2)c(=O)n2nc(C3=CCC4(CC3)COC4)nc2n1CC(=O)Nc1ccc(S(F)(F)(F)(F)F)cc1Cl [Example 175, N-(2-chloro-4-(pentafluoro-λ6-sulfaneyl)phenyl)-2-(5-ethyl-6-(4-(5-hydroxy-6-methylpyrimidine-4-carbonyl)piperazin-1-yl)-7-oxo-2-(2-oxaspiro[3.5]non-6-en-7-yl)-[1,2,4]triazolo[1,5-a]pyrimidin-4(7H)-yl)acetamide] | 1 to 100 nM | 1 to 100 nM
CCc1c(N2CCN(C(=O)c3ncncc3O)CC2)c(=O)n2nc(-c3ccc4c(c3)CCO4)nc2n1CC(=O)Nc1ccc(C(F)(F)F)cc1Cl [Example 151, N-(2-chloro-4-(trifluoromethyl)phenyl)-2-(2-(2,3-dihydrobenzofuran-5-yl)-5-ethyl-6-(4-(5-hydroxypyrimidine-4-carbonyl)piperazin-1-yl)-7-oxo-[1,2,4]triazolo[1,5-a]pyrimidin-4(7H)-yl)acetamide] | 1 to 100 nM | 1 to 100 nM
CCc1c(N2CCN(C(=O)c3ncnc(C)c3O)CC2)c(=O)n2nc(-c3cc4ccccc4o3)nc2n1CC(=O)Nc1ccc(S(F)(F)(F)(F)F)cc1 [Example 96, 2-(2-(benzofuran-2-yl)-5-ethyl-6-(4-(5-hydroxy-6-methylpyrimidine-4-carbonyl)piperazin-1-yl)-7-oxo-[1,2,4]triazolo[1,5-a]pyrimidin-4(7H)-yl)-N-(4-(pentafluoro-λ^6-sulfaneyl)phenyl)acetamide] | 1 to 100 nM | 1 to 100 nM
CCc1c(N2CCN(C(=O)c3ncnc(C)c3O)CC2)c(=O)n2nc(C3=CCC4(CC3)COC4)nc2n1CC(=O)Nc1ccc(S(F)(F)(F)(F)F)cc1 [Example 176, 2-(5-ethyl-6-(4-(5-hydroxy-6-methylpyrimidine-4-carbonyl)piperazin-1-yl)-7-oxo-2-(2-oxaspiro[3.5]non-6-en-7-yl)-[1,2,4]triazolo[1,5-a]pyrimidin-4(7H)-yl)-N-(4-(pentafluoro-λ^6-sulfaneyl)phenyl)acetamide] | 1 to 100 nM | 1 to 100 nM
CCc1c(C2=CCN(C(=O)c3ncnc(C)c3O)CC2)c(=O)n2nc(C3=CCCCCC3)nc2n1CC(=O)Nc1ccc(S(F)(F)(F)(F)F)cc1 [Example 91, 2-(2-(cyclohept-1-en-1-yl)-5-ethyl-6-(1-(5-hydroxy-6-methylpyrimidine-4-carbonyl)-1,2,3,6-tetra hydropyridin-4-yl)-7-oxo-[1,2,4]triazolo[1,5-a]pyrimidin-4(7H)-yl)-N-(4-(pentafluoro-λ^6-sulfaneyl)phenyl)acetamide] | 1 to 100 nM | 1 to 100 nM
CCc1c(N2CCN(C(=O)c3ncccc3O)CC2)c(=O)n2nc(-c3ccc4c(c3)CCO4)nc2n1CC(=O)Nc1ccc(C(F)(F)F)cc1Cl [Example 104, N-(2-chloro-4-(trifluoromethyl)phenyl)-2-(2-(2,3-dihydrobenzofuran-5-yl)-5-ethyl-6-(4-(3-hydroxypicolinoyl)piperazin-1-yl)-7-oxo-[1,2,4]triazolo[1,5-a]pyrimidin-4(7H)-yl)acetamide] | 1 to 100 nM | 1 to 100 nM
Cc1ncnc(C(=O)N2CCN(c3c(C4CCC4)n(CC(=O)Nc4ccc(C(F)(F)F)cc4Cl)c4nc(-c5ccc6c(c5)CCO6)nn4c3=O)CC2)c1O [Example 155, N-(2-chloro-4-(trifluoromethyl)phenyl)-2-(5-cyclobutyl-2-(2,3-dihydrobenzofuran-5-yl)-6-(4-(5-hydroxy-6-methylpyrimidine-4-carbonyl)piperazin-1-yl)-7-oxo-[1,2,4]triazolo[1,5-a]pyrimidin-4(7H)-yl)acetamide] | 1 to 100 nM | 1 to 100 nM
CCc1c(N2CCN(C(=O)c3nc(C)ccc3O)CC2)c(=O)n2nc(-c3ccc4c(c3)CCO4)nc2n1CC(=O)Nc1ccc(C(F)(F)F)cc1Cl [Example 105, N-(2-chloro-4-(trifluoromethyl)phenyl)-2-(2-(2,3-dihydrobenzofuran-5-yl)-5-ethyl-6-(4-(3-hydroxy-6-methylpicolinoyl)piperazin-1-yl)-7-oxo-[1,2,4]triazolo[1,5-a]pyrimidin-4(7H)-yl)a cetamide] | 1 to 100 nM | 1 to 100 nM
